Measured values published in patent US10646488B2 (Araxes Pharma LLC, priority 2016, dated 2020).

These molecules were tested against T1, KRAS G12C 1-169, his-tagged protein, GDP-loaded (Homo sapiens, UniProt P01116, G12C) (assay: Covalent binding (% modification) to KRAS G12C by mass spectrometry). Conditions: covalent binding to KRAS G12C after a ten minute incubation period.
T1 construct: KRAS G12C 1-169, his-tagged protein, GDP-loaded
Also: test concentration or dose not given here.

Row | SMILES | Binding %
1 | C=CC(=O)N1C[C@@H](C)N(c2nc(N3CC(N(C)C)C3)nc3c(F)c(-c4c(O)cccc4F)c(Cl)cc23)C[C@H]1C [Compound 80, 1-((2R,5R)-4-(6-chloro-2-(3-(dimethylamino)azetidin-1-yl)-8-fluoro-7-(2-fluoro-6-hydroxyphenyl)quinazolin-4-yl)-2,5-dimethyl-piperazin-1-yl) prop-2-en-1-one] | + (+ indicates binding activity up to 50%)
2 | C=CC(=O)N1C[C@@H](C)N(c2nc(N3CC(N(C)C)C3)nc3c(F)c(-c4c(O)cccc4F)c(Cl)cc23)C[C@@H]1C [Compound 81, 1-((2S,5R)-4-(6-chloro-2-(3-(dimethylamino)azetidin-1-yl)-8-fluoro-7-(2-fluoro-6-hydroxyphenyl)quinazolin-4-yl)-2,5-dimethyl-piperazin-1-yl) prop-2-en-1-one] | + (+ indicates binding activity up to 50%)
3 | C=CC(=O)N1CCN(c2nc(N3CC(N(C)C)C3)nc3c(F)c(-c4c(O)cccc4F)c(Cl)cc23)C[C@@H]1C [Compound 82, 1-((2S)-4-(6-chloro-2-(3-(dimethylamino)azetidin-1-yl)-8-fluoro-7-(2-fluoro-6-hydroxyphenyl)quinazolin-4-yl)-2-methyl-piperazin-1-yl) prop-2-en-1-one] | ++ (++ indicates binding activity from 50 to 90%)

Same assay, conditions: covalent binding to KRAS G12C after a three minute incubation period

Row | SMILES | Binding %
4 | C=CC(=O)N1CCN(c2nc(OCCN(CC)CC)nc3c(F)c(-c4c(O)cccc4F)c(Cl)cc23)C[C@H]1C [Compound 85, 1-((2R)-4-(6-chloro-2-(2-(diethylamino)ethoxy)-8-fluoro-7-(2-fluoro-6-hydroxyphenyl)quinazolin-4-yl)-2-methyl-piperazin-1-yl) prop-2-en-1-one] | ++ (++ indicates binding activity from 50 to 90%)
5 | C=CC(=O)N1C[C@@H](C)N(c2nc(N3CC(N(C)C)C3)nc3c(F)c(-c4c(O)cccc4F)c(Cl)cc23)C[C@H]1C [Compound 86, 1-((2R,5R)-4-(6-chloro-2-(3-(dimethylamino)azetidin-1-yl)-8-fluoro-7-(2-fluoro-6-hydroxyphenyl)quinazolin-4-yl)-2,5-dimethyl-piperazin-1-yl) prop-2-en-1-one] | + (+ indicates binding activity greater than 0% and up to 50%)
6 | C=CC(=O)N1C[C@@H](C)N(c2nc(N3CC(N(C)C)C3)nc3c(F)c(-c4c(O)cccc4F)c(Cl)cc23)C[C@@H]1C [Compound 87, 1-((2S,5R)-4-(6-chloro-2-(3-(dimethylamino)azetidin-1-yl)-8-fluoro-7-(2-fluoro-6-hydroxyphenyl)quinazolin-4-yl)-2,5-dimethyl-piperazin-1-yl) prop-2-en-1-one] | + (+ indicates binding activity greater than 0% and up to 50%)
7 | C=CC(=O)N1CCN(c2nc(N3CC(N(C)C)C3)nc3c(F)c(-c4c(O)cccc4F)c(Cl)cc23)C[C@@H]1C [Compound 88, 1-((2S)-4-(6-chloro-2-(3-(dimethylamino)azetidin-1-yl)-8-fluoro-7-(2-fluoro-6-hydroxyphenyl)quinazolin-4-yl)-2-methyl-piperazin-1-yl) prop-2-en-1-one] | + (+ indicates binding activity greater than 0% and up to 50%)
8 | C=CC(=O)N1CCN(c2nc(CN(C)Cc3ncccn3)nc3c(F)c(-c4c(O)cccc4F)c(Cl)cc23)C[C@H]1C [Compound 91, 1-((2R)-4-(6-chloro-8-fluoro-7-(2-fluoro-6-hydroxyphenyl)-2-((methyl (pyrimidin-2-yl-methyl)amino)methyl)quinazolin-4-yl)-2-methyl-piperazin-1-yl) prop-2-en-1-one] | + (+ indicates binding activity greater than 0% and up to 50%)
9 | C=CC(=O)N1C[C@H](C)N(c2nc(N3CC(N)C3)nc3c(F)c(-c4c(O)cccc4F)c(Cl)cc23)C[C@H]1C [Compound 92] | ++ (++ indicates binding activity from 50 to 90%)
10 | C#CCN(C)C1CN(c2nc(N3C[C@@H](C)N(C(=O)C=C)C[C@@H]3C)c3cc(Cl)c(-c4c(O)cccc4F)c(F)c3n2)C1 [Compound 93, 1-((2R,5S)-4-(6-chloro-8-fluoro-7-(2-fluoro-6-hydroxyphenyl)-2-(3-(methyl (prop-2-yn-1-yl)amino)azetidin-1-yl)quinazolin-4-yl)-2,5-dimethyl-piperazin-1-yl) prop-2-en-1-one] | ++ (++ indicates binding activity from 50 to 90%)
11 | C=CC(=O)N1C[C@H](C)N(c2nc(N3CC(N(C)C)C3)nc3c(F)c(-c4c(O)cccc4F)c(Cl)cc23)C[C@@H]1C [Compound 94, 1-((2S,5S)-4-(6-chloro-2-(3-(dimethylamino)azetidin-1-yl)-8-fluoro-7-(2-fluoro-6-hydroxyphenyl)quinazolin-4-yl)-2,5-dimethyl-piperazin-1-yl) prop-2-en-1-one] | + (+ indicates binding activity greater than 0% and up to 50%)
12 | C=CC(=O)N1CCN(c2nc(CNCc3ncccn3)nc3c(F)c(-c4c(O)cccc4F)c(Cl)cc23)C[C@H]1C [Compound 95, 1-((2R)-4-(6-chloro-8-fluoro-7-(2-fluoro-6-hydroxyphenyl)-2-(((pyrimidin-2-ylmethyl)amino)methyl)quinazolin-4-yl)-2-methyl-piperazin-1-yl) prop-2-en-1-one] | ++ (++ indicates binding activity from 50 to 90%)
13 | C=CC(=O)N1C[C@H](C)N(c2nc(N3CC(NC)C3)nc3c(F)c(-c4c(O)cccc4F)c(Cl)cc23)C[C@H]1C [Compound 96, 1-((2R,5S)-4-(6-chloro-8-fluoro-7-(2-fluoro-6-hydroxyphenyl)-2-(3-(methylamino)azetidin-1-yl)quinazolin-4-yl)-2,5-dimethyl-piperazin-1-yl) prop-2-en-1-one] | +++ (+++ indicates binding activity greater than 90%)
14 | C=CC(=O)N1C[C@H](C)N(c2nc(N3CC(N)C3)nc3c(F)c(-c4c(C)ccc5cn[nH]c45)c(Cl)cc23)C[C@H]1C [Compound 97, 1-((2R,5S)-4-(2-(3-aminoazetidin-1-yl)-6-chloro-8-fluoro-7-(6-methyl-1H-indazol-7-yl)quinazolin-4-yl)-2,5-dimethyl-piperazin-1-yl) prop-2-en-1-one] | ++ (++ indicates binding activity from 50 to 90%)
15 | C=CC(=O)N1C[C@H](C)N(c2nc(N3CC(N(C)CC)C3)nc3c(F)c(-c4c(O)cccc4F)c(Cl)cc23)C[C@H]1C [Compound 98, 1-((2R,5S)-4-(6-chloro-2-(3-(ethyl(methyl)amino)azetidin-1-yl)-8-fluoro-7-(2-fluoro-6-hydroxyphenyl)quinazolin-4-yl)-2,5-dimethyl-piperazin-1-yl) prop-2-en-1-one] | ++ (++ indicates binding activity from 50 to 90%)
16 | C=CC(=O)N1C[C@H](C)N(c2nc(N3CC(N(C)C(C)C)C3)nc3c(F)c(-c4c(O)cccc4F)c(Cl)cc23)C[C@H]1C [Compound 99, 1-((2R,5S)-4-(6-chloro-8-fluoro-7-(2-fluoro-6-hydroxyphenyl)-2-(3-(isopropyl (methyl)amino)azetidin-1-yl)quinazolin-4-yl)-2,5-dimethyl-piperazin-1-yl) prop-2-en-1-one] | ++ (++ indicates binding activity from 50 to 90%)
17 | C=CC(=O)N1C[C@H](C)N(c2nc(N3CC(NC)C3)nc3c(F)c(-c4c(C)ccc5cn[nH]c45)c(Cl)cc23)C[C@H]1C [Compound 100, 1-((2R,5S)-4-(6-chloro-8-fluoro-7-(6-methyl-1H-indazol-7-yl)-2-(3-(methylamino)azetidin-1-yl)quinazolin-4-yl)-2,5-dimethyl-piperazin-1-yl) prop-2-en-1-one] | ++ (++ indicates binding activity from 50 to 90%)
18 | CC(C)/C=C(\C#N)C(=O)N1C[C@H](C)N(c2nc(N3CC(N(C)C)C3)nc3c(F)c(-c4c(O)cccc4F)c(Cl)cc23)C[C@H]1C [Compound 101, (E)-2-((2R,5S)-4-(6-chloro-2-(3-(dimethylamino)azetidin-1-yl)-8-fluoro-7-(2-fluoro-6-hydroxyphenyl)quinazolin-4-yl)-2,5-dimethyl-piperazine-1-carbonyl)-4-methylpent-2-enenitrile] | + (+ indicates binding activity greater than 0% and up to 50%)
19 | C=CC(=O)N1C[C@H](C)N(c2nc(N3CC(N(C)CC)C3)nc3c(F)c(-c4c(O)cccc4F)c(Cl)cc23)C[C@H]1C [Compound 102, 1-((2R,5S)-4-(6-chloro-2-(3-(ethyl(methyl)amino)azetidin-1-yl)-8-fluoro-7-(2-fluoro-6-hydroxyphenyl)quinazolin-4-yl)-2,5-dimethyl-piperazin-1-yl) prop-2-en-1-one] | ++ (++ indicates binding activity from 50 to 90%)
20 | C=CC(=O)N1C[C@H](C)N(c2nc(N3CC(N4CCC(F)(F)C4)C3)nc3c(F)c(-c4c(O)cccc4F)c(Cl)cc23)C[C@H]1C [Compound 103, 1-((2R,5S)-4-(6-chloro-2-(3-(3,3-difluoro-pyrrolidin-1-yl)azetidin-1-yl)-8-fluoro-7-(2-fluoro-6-hydroxyphenyl)quinazolin-4-yl)-2,5-dimethyl-piperazin-1-yl) prop-2-en-1-one] | + (+ indicates binding activity greater than 0% and up to 50%)
21 | C=CC(=O)N1C[C@H](C)N(c2nc(N3CC(C)(N(C)C)C3)nc3c(F)c(-c4c(O)cccc4F)c(Cl)cc23)C[C@H]1C [Compound 104, 1-((2R,5S)-4-(6-chloro-2-(3-(dimethylamino)-3-methylazetidin-1-yl)-8-fluoro-7-(2-fluoro-6-hydroxyphenyl)quinazolin-4-yl)-2,5-dimethyl-piperazin-1-yl) prop-2-en-1-one] | +++ (+++ indicates binding activity greater than 90%)
22 | C=CC(=O)N1C[C@H](C)N(c2nc(N3CC(N(CC)C4CC4)C3)nc3c(F)c(-c4c(O)cccc4F)c(Cl)cc23)C[C@H]1C [Compound 105, 1-((2R,5S)-4-(6-chloro-2-(3-(cyclopropyl (ethyl)amino)azetidin-1-yl)-8-fluoro-7-(2-fluoro-6-hydroxyphenyl)quinazolin-4-yl)-2,5-dimethyl-piperazin-1-yl) prop-2-en-1-one] | ++ (++ indicates binding activity from 50 to 90%)
